# Experimental data as given in patent publication US20200277246A1, “TREATMENT METHOD, COMPOUNDS, AND METHOD OF INCREASING TRPV2 ACTIVITY” (THE FEINSTEIN INSTITUTE FOR MEDICAL RESEARCH, priority 2015, published 2020).
# Where “and” joins values, the source holds several entries; their conditions need not be identical. Equal values may be shown once.
# What was measured:
# [1] = system: FLS; experiment: FLS invasion, focused library screen (Table 1); type: cell-based; conditions: evaluated over 24 hours in vitro
# Protocol: The in vitro invasiveness of FLS was assayed in a transwell system using Matrigel-coated inserts (BD Biosciences, Franklin Lakes, N.J.), as previously described (Tolboom et al., “Invasiveness of Fibroblast-Like Synoviocytes is an Individual Patient Characteristic Associated with the Rate of Joint Destruction in Patients with Rheumatoid Arthritis,” Arthritis Rheum. 52 (7):1999-2002 (2005); Laragione et al., “The Arthritis Severity Locus Cia5d is a Novel Genetic Regulator of the Invasive Properties of Synovial Fibroblasts,” Arthritis Rheum. 58 (8):2296-2306 (2008), which are hereby incorporated by reference in their entirety). Briefly, 70-80% confluent cells were harvested by trypsin-EDTA digestion, and re-suspended at 2.0×10^4 cells in 500 μl of serum-free DMEM. Cells were placed in the upper compartment of the Matrigel-coated inserts. Where indicated, O1821, LER13, or vehicle was added to the upper chamber. The lower compartment was filled with complete media and the plates were incubated at 37° C. for 24 hours. After 24 hours the upper surface of the insert was wiped with cotton-swabs to remove non-invading cells and the Matrigel layer. The opposite side of the insert was stained with Crystal Violet (Sigma) and the total number of cells that invaded through Matrigel counted at 100× magnification. Experiments were done in duplicate.
# [2] = system: DBA1/J mice with collagen-induced arthritis; experiment: Collagen induced arthritis (CIA); type: in vivo, mouse
# From the text: CIA was induced in 8-week-old male DBA1/J mice (Jackson Laboratories) using a standard protocol (Courtenay et al., “Immunisation Against Heterologous Type II Collagen Induces Arthritis in Mice,” Nature 283 (5748):666-668 (1980); Nagler-Anderson et al., “Suppression of Type II Collagen-Induced Arthritis by Intragastric Administration of Soluble Type II Collagen,” Proc. Natl. Acad. Sci. U.S.A. 83 (19):7443-7446 (1986), which are hereby incorporated by reference in their entirety). Briefly, bovine type II collagen (Chondrex, Redmond, Wash.) was dissolved overnight in acetic acid 0.1 N and then homogenized at 1:1 with Complete Freund's Adjuvant (CFA, Difco, Detroit, Mich.). Anesthetized mice were injected intradermally with 100 μg of type II collagen emulsified in CFA in the tail. The new Trpv2 agonist LER13 (10 mg/Kg) or control vehicle (PBS 50%, PEG300 40%, PG 5%, PS80 5%) was started on day 10 (D10) and administered intra-peritoneally every-other-day (from D10 until day 55). On day 21 (D21), mice received a booster injection of 100 μg of type II collagen in incomplete Freund's adjuvant. Clinical signs of arthritis were evident on day 24 (D24).
# Arthritis severity in CIA mice was scored using a modified scoring system based on Jirholt et al., “Genetic Linkage Analysis of Collagen-Induced Arthritis in the Mouse,” Eur. J. Immunol. 28 (10):3321-3328 (1998), which is hereby incorporated by reference in its entirety. Briefly, the modified scoring system ranged from 0-16 per mouse per day and included a functional component of disease severity (non-weight bearing) in the maximum score of 4 per paw. The arthritis severity index (ASI), which is the sum of all scores obtained during the observation period, was used to compare treatment groups as it provides a comprehensive assessment of arthritis severity over time, and correlates with histologic damage (Brenner et al., “The Non-MHC Quantitative Trait Locus Cia10 Contains a Major Arthritis Gene and Regulates Disease Severity, Pannus Formation and Joint Damage,” Arthritis Rheum. 52 (1):322-332 (2005); Brenner et al., “The Non-MHC Quantitative Trait Locus Cia5 Contains Three Major Arthritis Genes that Differentially Regulate Disease Severity, Pannus Formation, and Joint Damage in Collagen- and Pristane-Induced Arthritis,” J. Immunol. 174 (12):7894-7903 (2005), which are hereby incorporated by reference in their entirety).
# [3] = molecular target: Trpv1 (Homo sapiens, UniProt Q8NER1); conditions: cited from earlier work
# Trpv1, sequence (Q8NER1 whole entry, species assumed): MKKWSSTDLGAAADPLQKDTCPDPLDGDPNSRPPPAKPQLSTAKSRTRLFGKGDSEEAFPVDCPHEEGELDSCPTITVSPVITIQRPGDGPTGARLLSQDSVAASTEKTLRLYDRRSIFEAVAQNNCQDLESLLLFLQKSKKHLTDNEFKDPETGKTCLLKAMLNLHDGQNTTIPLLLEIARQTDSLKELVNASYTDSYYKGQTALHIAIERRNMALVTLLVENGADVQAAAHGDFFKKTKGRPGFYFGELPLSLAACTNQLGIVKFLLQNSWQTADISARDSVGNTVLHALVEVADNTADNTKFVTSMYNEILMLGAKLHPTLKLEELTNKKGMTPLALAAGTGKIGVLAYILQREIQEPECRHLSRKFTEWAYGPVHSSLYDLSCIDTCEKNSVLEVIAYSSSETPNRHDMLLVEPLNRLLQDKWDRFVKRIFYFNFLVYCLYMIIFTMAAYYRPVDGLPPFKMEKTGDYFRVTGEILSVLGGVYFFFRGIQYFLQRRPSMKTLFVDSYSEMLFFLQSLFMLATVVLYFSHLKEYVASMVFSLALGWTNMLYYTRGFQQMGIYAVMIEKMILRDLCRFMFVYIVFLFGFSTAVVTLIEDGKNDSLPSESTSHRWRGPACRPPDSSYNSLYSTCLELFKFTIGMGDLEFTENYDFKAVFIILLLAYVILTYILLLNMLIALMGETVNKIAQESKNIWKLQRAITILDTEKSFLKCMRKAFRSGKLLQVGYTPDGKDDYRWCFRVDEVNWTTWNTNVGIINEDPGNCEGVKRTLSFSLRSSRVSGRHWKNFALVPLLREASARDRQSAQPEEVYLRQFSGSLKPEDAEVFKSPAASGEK
# [4] = system: cervix carcinoma cell line; experiment: Cancer cell invasion, cervix carcinoma; type: cell-based
# [5] = system: FLS; experiment: MTT assay; type: cell-based; conditions: 24 hours, concentrations of the invasion studies
# Protocol: 4×10^4 FLS per well were plated in triplicate in 96-well plates in 100 μl of complete media. Cells were allowed to adhere for 24 hours. Media was then changed and O1821, LER13, or vehicle was added at the same concentrations used for the invasion studies. After 24 hours (same duration of the invasion experiments) viable cells were determined by the colorimetric MTT kit (Millipore) according to the manufacturer's instructions.
# [6] = system: FLS actin cytoskeleton, lamellipodia and Trpv2 distribution; experiment: Immunofluorescence and confocal microscopy of FLS; type: cell-based
# Protocol: Immunofluorescence was performed as previously reported (Laragione et al., “mTOR Regulates the Invasive Properties of Synovial Fibroblasts in Rheumatoid Arthritis,” Mol. Med. 16 (9-10):352-358 (2010); Chan et al., “The GTPase Rac Regulates the Proliferation and Invasion of Fibroblast-Like Synoviocytes from Rheumatoid Arthritis Patients,” Mol. Med. 13 (5-6):297-304 (2007), which are hereby incorporated by reference in their entirety). Briefly, FLS were cultured on coverslips to 10-20% confluence, starved overnight and then pre-treated for 30 minutes, 60 minutes or 24 h with either DMSO or O1821, in the presence or absence of IL-1β 10-25 ng/ml or PDGF 50 ng/ml in complete media or in serum-free media. Cells were then fixed with 4% formaldehyde for 15 minutes at room temperature and permeabilized with PBS/Triton X-100 0.1% for 5 minutes. Non-specific binding was blocked with 5% nonfat milk. A rabbit anti-Trpv2 (Santa Cruz Biotechnology) was used as primary antibody, and a Alexa Fluor 488 (green) donkey anti-rabbit IgG (Invitrogen) used as secondary antibody. Alexa Fluor 594 (red) Phalloidin (Invitrogen) was used to stain the actin filament. The stained cells were mounted on a glass slide. A Zeiss Axiovert 200 M fluorescent microscope was used for visualization with the appropriate filters, with Zeiss Axioversion 4.7 software. Immunofluorescence microscopy was used for cell cytoskeleton scoring as previously described (Laragione et al., “CXCL10 and its Receptor CXCR3 Regulate Synovial Fibroblast Invasion in Rheumatoid Arthritis,” Arthritis Rheum. 63 (11):3274-3283 (2011), which is hereby incorporated by reference in its entirety). An Olympus FluoView 300 was used for confocal microscopy with a 600× magnification.
# [7] = system: phosphorylated Erk1/2; experiment: FLS levels of phosphorylated Erk1/2; type: cell-based
# [8] = 10 mg/Kg IP every-other-day from D10, scoring to D76
SMILES,FLS invasion decreased by [1],"Maximum arthritis severity score per mouse, mean±SD ([2]; 10 mg/Kg IP every-other-day)",Reduction of maximum arthritis severity scores per mouse vs vehicle ([2]; 10 mg/Kg IP every-other-day),"Arthritis severity index (ASI), mean±S.D. [2, 8]","Reduction in mean cumulative arthritis scores vs vehicle [2, 8] [%]",Arthritis severity (CIA) ([2]; collagen-induced arthritis),Number of joints with the maximum score ([2]; day 63),Number of joints with the maximum score ([2]; day 70),Stimulation of Trpv1 [3],Cell invasion [4],Toxicity to FLS (cell mortality) [5],Distribution of Trpv2 in FLS ([6]; 10 μM),"Actin cytoskeleton rearrangements, lamellipodia, cell morphology ([6]; 10 μM, 30 minutes to 24 hours, PDGF or IL-1β)","Actin cytoskeleton organization, number and distribution of lamellipodia ([6]; RA FLS, 1 μM, 30 minutes)",Levels of phosphorylated Erk1/2 [7]
"C#Cc1cc(O)c(C2C=C(C)CCC2C(=C)C)c(O)c1C1C=C(C)CCC1C(=C)C [Compound 13, (1R,2″R,2R,2″S)-6′-ethynyl-5,5″-dimethyl-2,2″-di(prop-1-en-2-yl)-1,1″,2,2″,3,3″,4,4″-octahydro-[1,1′:3′,1″-terphenyl]-2′,4′-diol]",Decreased by 64%,7±4.2,~50% and 50%,40.7±36.8,50,Protective in CIA,5,1,–,–,–,–,–,–,–
C=C(C)[C@@H]1CCC(C)=C[C@H]1c1c(O)cc(C)cc1O [Compound O1821],–,–,–,–,–,–,–,–,does not stimulate,significantly reduce cell invasion,not toxic,did not significantly change,no significant effect,did not affect,did not affect
